Results reported in the NIST ThermoML archive (doi:10.1016/j.jct.2010.03.002).
± gives the expanded uncertainty stated by the source.

Key:
[1] = 101 kPa, Liquid; for viscosity: Capillary tube (Ostwald / Ubbelohde) method; for mass density: Vibrating tube method
[2] = xn = mol fraction of the nth substance listed; conditions: 101 kPa, Liquid, x1 = 1; for viscosity: Capillary tube (Ostwald / Ubbelohde) method; for mass density: Vibrating tube method

CCCCCCn1cc[n+](C)c1.[Br-] [3-hexyl-1-methyl-1H-imidazolium bromide]
viscosity ([1]; 293.15 K): 6936 ± 750 mPa·s | mass density ([1]; 293.15 K): 1227.4 ± 1.7 kg/m3 | viscosity ([1]; 303.15 K): 2239 ± 200 mPa·s | mass density ([1]; 303.15 K): 1220.1 ± 1.7 kg/m3 | viscosity ([1]; 313.15 K): 851.65 ± 56 mPa·s | mass density ([1]; 313.15 K): 1213.3 ± 1.7 kg/m3 | viscosity ([1]; 323.15 K): 512.14 ± 27 mPa·s | mass density ([1]; 323.15 K): 1205.7 ± 1.7 kg/m3 | viscosity ([1]; 333.15 K): 350.69 ± 16 mPa·s | mass density ([1]; 333.15 K): 1198.6 ± 1.6 kg/m3

O [water]
viscosity ([1]; 293.15 K): 1.304 ± 0.012 mPa·s | viscosity ([1]; 303.15 K): 1.002 ± 0.01 mPa·s | viscosity ([1]; 313.15 K): 0.653 ± 0.007 mPa·s | viscosity ([1]; 323.15 K): 0.544 ± 0.005 mPa·s | mass density ([1]; 323.15 K): 988 ± 0.1 kg/m3 | viscosity ([1]; 333.15 K): 0.467 ± 0.005 mPa·s | mass density ([1]; 333.15 K): 983.2 ± 0.1 kg/m3

O [water] + CCCCCCn1cc[n+](C)c1.[Br-]
viscosity ([2]; 293.15 K): 1.304 ± 0.012 mPa·s | viscosity ([2]; 303.15 K): 1.002 ± 0.01 mPa·s | viscosity ([2]; 313.15 K): 0.653 ± 0.007 mPa·s | viscosity ([2]; 323.15 K): 0.544 ± 0.005 mPa·s | mass density ([2]; 323.15 K): 988 ± 0.1 kg/m3 | viscosity ([2]; 333.15 K): 0.467 ± 0.005 mPa·s | mass density ([2]; 333.15 K): 983.2 ± 0.1 kg/m3
